Results from BindingDB's records for doi:10.7270/Q2TX3CTT (Broad Institute, 2010).

What follows are molecules tested against Glycogen synthase kinase-3 beta (Homo sapiens, UniProt P49841) (assay: GSK3beta kinase inhibitor potency, dose response, biochemical, luminescence, cell-free homogeneous, retest (AID 434954)).
Glycogen synthase kinase-3 beta, sequence (P49841 whole entry): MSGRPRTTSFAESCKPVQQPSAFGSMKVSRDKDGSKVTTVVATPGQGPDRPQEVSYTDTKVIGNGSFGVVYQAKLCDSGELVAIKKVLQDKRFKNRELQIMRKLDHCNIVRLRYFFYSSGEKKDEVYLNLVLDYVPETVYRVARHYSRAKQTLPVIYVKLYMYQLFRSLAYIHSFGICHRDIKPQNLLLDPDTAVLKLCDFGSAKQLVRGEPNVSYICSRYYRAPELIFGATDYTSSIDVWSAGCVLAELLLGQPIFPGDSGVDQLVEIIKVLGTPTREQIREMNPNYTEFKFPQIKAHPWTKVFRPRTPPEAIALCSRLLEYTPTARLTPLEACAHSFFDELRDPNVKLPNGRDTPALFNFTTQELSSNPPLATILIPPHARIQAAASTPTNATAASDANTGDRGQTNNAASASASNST
`N#CC(C#N)=Cc1cc2ccccc2nc1N1CCOCC1` [2-[(2-morpholin-4-ylquinolin-3-yl)methylidene]propanedinitrile] gave an EC50 of over 300 µM.
Work on `CCN(CCNC(=O)CN(C)S(=O)(=O)c1cccc2nsnc12)c1ccccc1` yielded an EC50 of over 300 µM.
`CC(=O)N1CCc2c(sc(NC(=O)Cc3ccccc3)c2C(N)=O)C1` [MLS000879211] gave an EC50 of 24.4 µM.
`N=C(NO)c1ccc(Oc2ccccc2Cl)c([N+](=O)[O-])c1` [4-(2-chlorophenoxy)-N'-hydroxy-3-nitrobenzenecarboximidamide] gave an EC50 of over 300 µM.
Work on `O=C1N=C(Nc2ccc(O)cc2)SC1=Cc1ccco1` [SMR000298037] yielded an EC50 of over 300 µM.
Work on `Nc1nc(Nc2cccc(Cl)c2)nc(NCCO)c1[N+](=O)[O-]` yielded an EC50 of 1.73 µM.
Molecule `CCN(CC)Cc1c(O)ccc2occ(C(=O)c3ccc(OC)cc3)c12` [[4-(diethylaminomethyl)-5-oxidanyl-1-benzofuran-3-yl]-(4-methoxyphenyl)methanone] has an EC50 of over 300 µM.
In the case of `O=C(Nc1ccccc1)C(=O)Nc1ccccn1` [N-Phenyl-N'-pyridin-2-yl-oxalamide], the EC50 is reported as over 300 µM.
`c1ccc(-c2nc(-c3ccco3)n3ccccc23)cc1` [MLS000392030] was tested, and the EC50 was over 300 µM.
Molecule `O=C(COc1ccccc1)Nc1ccc2c(c1)C(=O)N(CC1CCCO1)C2=O` (stereo unspecified) [SMR000291909] has an EC50 of over 300 µM.
In the case of `CC(C)CC(=O)Nc1ccccc1-c1nnn(CC(=O)N2CCc3ccccc3C2)n1` [SMR000122537], the EC50 is reported as over 300 µM.
Molecule `CC1(C)CC(=O)C=C(NCc2ccccc2)C1` [SMR000186728] has an EC50 of over 300 µM.
`NC(=O)CSc1nnc(COc2ccc3ccccc3c2)o1` [MLS001203608] gave an EC50 of over 300 µM.
`COc1cc(-c2cc(=O)c3c(O)c(OC)c(OC)c(O)c3o2)ccc1O` [5,8-dihydroxy-2-(4-hydroxy-3-methoxy-phenyl)-6,7-dimethoxy-chromone] showed an EC50 of 24.9 µM.
In the case of `COc1ccc(C=C2SC(Nc3ccccc3OC)=NC2=O)cc1` [SMR000517219], the EC50 is reported as over 300 µM.
`COC(=O)c1nnn(-c2nonc2N)c1CN1CCCC1` [MLS001202105] was tested, and the EC50 was over 300 µM.
Molecule `Cc1oc2ccc(OC(=O)c3cccs3)cc2c1C(=O)OC(C)C` [2-Methyl-5-(thiophene-2-carbonyloxy)-benzofuran-3-carboxylic acid isopropyl ester] has an EC50 of over 300 µM.
In the case of `Cc1ccc(CNc2nc(N)c([N+](=O)[O-])c(Nc3cccc(F)c3)n2)cc1` [SMR000148340], the EC50 is reported as over 300 µM.
`O=C1N=C(Nc2ccccc2Cl)SC1=Cc1ccc(C(=O)O)cc1` [MLS001203362] showed an EC50 of over 300 µM.
`COc1ccc(-c2nn(-c3ccccc3)cc2C=Nn2cnnc2)cc1OC` [SMR000066046] was tested, and the EC50 was over 300 µM.
For `CC(=O)c1sc(NC(=O)CCNC(=O)c2ccco2)nc1-c1ccccc1`, the EC50 was 3.03 µM.
`Cn1nc(C(F)(F)F)c2cc(NC(=O)OCc3ccc(C(C)(C)C)cc3)sc21` [(4-tert-butylphenyl)methyl N-[1-methyl-3-(trifluoromethyl)thieno[2,3-c]pyrazol-5-yl]carbamate] showed an EC50 of over 300 µM.
With `Cc1[nH]c2ccccc2c1Cc1nnc(SCC(N)=O)o1` [2-[[5-[(2-methyl-1H-indol-3-yl)methyl]-1,3,4-oxadiazol-2-yl]sulfanyl]acetamide] the EC50 was over 300 µM.
`COc1ccc(/C=C/C(=O)NC2CCN(Cc3ccccc3)CC2)cc1OC` [(E)-N-(1-benzylpiperidin-4-yl)-3-(3,4-dimethoxyphenyl)prop-2-enamide] was tested, and the EC50 was over 300 µM.
For `Nc1ccc(C(=O)Nc2ccccc2C(=O)O)cc1`, the EC50 was over 300 µM.
Molecule `CC(C=Cc1ccccc1F)=NNC(=O)C(C)C` [N-[[(E)-4-(2-fluorophenyl)but-3-en-2-ylidene]amino]-2-methylpropanamide] has an EC50 of over 300 µM.
`CC(=O)N(\C=C/C=C/C=C1\Sc2ccccc2C1=O)c1ccccc1` [N-[(1Z,3E,5Z)-5-(3-oxo-1-benzothien-2(3H)-ylidene)penta-1,3-dienyl]-N-phenylacetamide] gave an EC50 of over 300 µM.
Molecule `CCN1/C(=C/c2ccc3cccc(C)c3[n+]2CC)Sc2ccccc21` [(2Z)-3-ethyl-2-[(1-ethyl-8-methyl-2-quinolin-1-iumyl)methylidene]-1,3-benzothiazole;iodide] has an EC50 of over 300 µM.
For `Nc1nc(NCC2CCCO2)nc(Nc2ccc(F)cc2)c1[N+](=O)[O-]` (stereo unspecified) [SMR000219528], the EC50 was 5.82 µM.
For `CC1CCN(Cc2c(C(=O)NN=Cc3ccccc3O)nnn2-c2nonc2N)CC1` [SMR000620333], the EC50 was 0.7 µM.
In the case of `O=C1CN(C(=O)c2ccco2)c2ccccc2N1` [4-(Furan-2-carbonyl)-3,4-dihydro-1H-quinoxalin-2-one], the EC50 is reported as over 300 µM.
For `COc1ccc(CCNC(=O)C(C(=O)c2ccccc2)n2cc(Cl)ccc2=O)cc1OC` (stereo unspecified) [2-(5-chloro-2-oxopyridin-1-yl)-N-[2-(3,4-dimethoxyphenyl)ethyl]-3-oxo-3-phenylpropanamide], the EC50 was over 300 µM.
`COc1ccc(-c2nn(-c3ccccc3)cc2C=NNC(=O)c2ccc(Br)o2)cc1` [5-bromo-N-[[3-(4-methoxyphenyl)-1-phenyl-4-pyrazolyl]methylideneamino]-2-furancarboxamide] gave an EC50 of over 300 µM.
For `Cc1cccc(Nc2nc(NCCCN3CCOCC3)nc(N)c2[N+](=O)[O-])c1` [N4-(3-methylphenyl)-N2-(3-morpholin-4-ylpropyl)-5-nitro-pyrimidine-2,4,6-triamine], the EC50 was 1.72 µM.
Work on `CCCCOC(=O)C1C(C)=Nc2ncnn2C1c1cccc(OC)c1OC` (stereo unspecified) [butyl 7-(2,3-dimethoxyphenyl)-5-methyl-4,7-dihydro[1,2,4]triazolo[1,5-a]pyrimidine-6-carboxylate] yielded an EC50 of 4.25 µM.
In the case of `COC(=O)c1cc(S(=O)(=O)N2CCCC(C)C2)c[nH]1` (stereo unspecified), the EC50 is reported as over 300 µM.
For `O=C(NCC(c1ccco1)N1CCN(c2ccc(F)cc2)CC1)c1cccs1` (stereo unspecified) [SMR000808277], the EC50 was over 300 µM.
In the case of `Cc1nn(Cc2ccc(Cl)c(Cl)c2)c(C)c1NC(=O)c1noc2c1CCCCC2` [SMR000023628], the EC50 is reported as over 300 µM.
`Cc1ccc(S(=O)(=O)NCC2COc3ccccc3O2)cc1` (stereo unspecified) [N-(2,3-Dihydro-benzo[1,4]dioxin-2-ylmethyl)-4-methyl-benzenesulfonamide] showed an EC50 of over 300 µM.
Work on `Cc1c(C(=O)O)sc2c1c(=O)n(Cc1ccccc1)c(=O)n2C` [1,5-dimethyl-2,4-dioxo-3-(phenylmethyl)-6-thieno[2,3-d]pyrimidinecarboxylic acid] yielded an EC50 of over 300 µM.
For `CS(=O)(=O)N(Cc1ccccc1)c1ccc(C(=O)Nc2ccccc2Sc2ccccc2)cc1` [4-[methylsulfonyl-(phenylmethyl)amino]-N-(2-phenylsulfanylphenyl)benzamide], the EC50 was over 300 µM.
Molecule `CSc1nc(SCC(=O)NCC2CCCO2)c2c3c(sc2n1)CN(C)CC3` (stereo unspecified) [2-[(7-methyl-2-methylsulfanyl-6,8-dihydro-5H-pyrido[2,3]thieno[2,4-b]pyrimidin-4-yl)sulfanyl]-N-(oxolan-2-ylmethyl)ethanamide] has an EC50 of 22.8 µM.
Molecule `Fc1ccccc1Nc1nc(-c2ccncc2)nc2ccccc12` [N-(2-fluorophenyl)-2-pyridin-4-yl-quinazolin-4-amine] has an EC50 of over 300 µM.
With `Cc1cc(N2CCN(C(=O)c3ccco3)CC2)c2ccccc2n1` [SMR000460267] the EC50 was over 300 µM.
With `COc1ccccc1-c1ccc(=O)n(CC(=O)NCc2ccco2)n1` [N-(furan-2-ylmethyl)-2-[3-(2-methoxyphenyl)-6-oxidanylidene-pyridazin-1-yl]ethanamide] the EC50 was over 300 µM.
`O=NCc1ccc(Oc2ccccc2Cl)c([N+](=O)[O-])c1` [N-[[4-(2-chlorophenoxy)-3-nitrophenyl]methylidene]hydroxylamine] showed an EC50 of 12.8 µM.
